Laboratory results from PubChem BioAssay AID449750 (Broad Institute, 2010).
Activity calls are given as the source filed them. How the calls were made is not given here.

assay: non-covalent RecA intein splicing inhibitors, dose response, biochemical, cell-free, fluorescence, secondary screen (AID 449750)

| SMILES | AC50 |
| --- | --- |
| CCOc1cc(C(c2c(C)[nH][nH]c2=O)c2c(C)[nH][nH]c2=O)ccc1O | 5.54 µM |
| Cc1nn(-c2ccccc2)c2c1C(c1ccc(F)cc1)C(C#N)=C(N)O2 (configuration not stated) | 28.4 µM |
| CN1c2ccc(C=O)c3c(C=O)ccc(c23)N(C)C1(C)C | > 38 µM (inactive) |
| CCOC(=O)Cc1c(C)c2c(C)[nH]nc2oc1=O | > 38 µM (inactive) |
| CCS(=O)(=O)C1=NN2C(=N)/C(=C\c3ccc(OC(=O)c4ccco4)cc3)C(=O)N=C2S1 | > 38 µM (inactive) |
| O=C(N/N=C/c1coc2ccc(Cl)cc2c1=O)c1ccc(O)cc1 | > 38 µM (inactive) |
| Cc1[nH]n(C(C)(C)C)c(=O)c1Sc1ccccc1 | > 38 µM (inactive) |
| O=C(Cc1ccccc1F)Nc1nc2ccccc2[nH]1 | > 38 µM (inactive) |
| O=c1[nH]cc(NCCc2ccccc2)c(=O)[nH]1 | > 38 µM (inactive) |
| Cc1nc2c(-c3ccc(F)cc3)c(C)[nH]n2c(=O)c1Cl | > 38 µM (inactive) |
| COc1ccc(NC(=O)/C(Cl)=C(/Cl)S(=O)Cc2ccccc2)cn1 (configuration not stated) | > 38 µM (inactive) |
| CC(C)c1[nH]nc2c1C(c1cccs1)C(C#N)=C(N)O2 (configuration not stated) | > 38 µM (inactive) |
| Cn1c(-c2ccccc2)c(C(=O)CCl)c2ccccc21 | 22.9 µM |
| CC(=O)Oc1cc2c(cc1Cl)C1(CC(c3ccccc3Cl)O2)CC(C)(C)NC(=S)N1 (configuration not stated) | 23.8 µM |
| CC(C)N(CC(=O)Nc1ccc(Cl)cc1C(F)(F)F)C(=O)CCl | 12.9 µM |
| O=c1cc(-c2ccc(Br)cc2)[nH][nH]1 | 13.4 µM |
| O=C1c2cc(F)ccc2-n2c1nc1ccccc1c2=O | > 38 µM (inactive) |
| CC1=NNC(=O)C1C(c1ccccc1)C1C(=O)NN=C1C (configuration not stated) | 6.67 µM |
| CC(=O)Nc1ccc(OC(=O)c2ccco2)cc1 | > 38 µM (inactive) |
| O=C(Nc1ccc(Cl)c(Cl)c1)Nc1ccccc1NS(=O)(=O)c1cccs1 | 30.3 µM |
| CCOC(=O)CNc1nnc(SCC(=O)OCC)[nH]c1=O | 10.2 µM |
| Cc1cc(C(=O)CCl)c(C)n1CCc1ccc(Cl)cc1 | 4.99 µM |
| O=C(Nc1ccccc1)NN(C(=O)CCl)c1ccccc1 | 6.12 µM |
| COC(=O)c1ccc(-c2ccc(C(c3c(C)[nH][nH]c3=O)c3c(C)[nH][nH]c3=O)o2)cc1 | 1.6 µM |
| COc1ccc(OC)c(Nc2cc3ccccc3c(=O)[nH]2)c1 | 1.92 µM |
| CCc1ccc(S(=O)(=O)/N=C2\C=C(Nc3ccc(O)cc3)C(=O)c3ccccc32)cc1 | 0.56 µM |

| SMILES | AC50 |
| --- | --- |
| Nc1c(N2CCCC2)cc(Cl)c2nonc12 | 4.13 µM |
| COc1cc(/C=C(\C#N)C(=O)c2c[nH]c3ccccc23)cc(OC)c1O | > 38 µM (inactive) |
| CSc1ccc(C(c2c(C)[nH][nH]c2=O)c2c(C)[nH][nH]c2=O)cc1 | 7.2 µM |
| C/C(=N/NC(=O)Cc1cc(=O)[nH][nH]1)c1ccc([N+](=O)[O-])cc1 | 21.5 µM |
| FC(F)(F)c1nnc(-c2ccccc2)nc1Oc1ccc(Cl)cc1Cl | > 38 µM (inactive) |
| CCN(CC)S(=O)(=O)c1ccc(N2CCN(S(=O)(=O)c3ccccc3C#N)CC2)nc1 | > 38 µM (inactive) |
| N#Cc1c(N2CCCCC2)nc(N)c2c(N)nc(SCC(=O)O)cc12 | > 38 µM (inactive) |
| COC(=O)c1c(NC(=O)/C=C/C(=O)O)sc(C)c1-c1ccc(C)c(C)c1 | 26.5 µM |
| CCCn1nc([N+](=O)[O-])c(C(C#N)c2nc3ccccc3s2)c(Cl)c1=O (configuration not stated) | 23.4 µM |
| COC(=O)C[C@]1(C(=O)OC)CN(C#N)N(c2ccc(Cl)cc2)C12c1ccccc1-c1ccccc12 | 14.3 µM |
| [O-]C1=N/[N+](=C/c2ccc(Cl)cc2)CC1 | > 38 µM (inactive) |
| CCOCC(=O)NCc1ccc2c(c1)cc(C)n2C | > 38 µM (inactive) |
| O=C1C(Nc2ccccc2)=C(N2CCCCC2)C(=O)c2ccccc21 | 12.6 µM |
| CC1(C)CC(CCNC(=O)CCl)(c2ccccc2)CCO1 (configuration not stated) | 21.3 µM |
| Cc1ccc(NC2=C(NCCO)C(=O)c3ccccc3C2=O)cc1 | 20.3 µM |
| CCOC(=O)C1Nc2c(F)cc(C)cc2C2c3ccccc3CC12 (configuration not stated) | 33.7 µM |
| O=C(CCl)N(Cc1cc(=O)[nH]c2ccccc12)c1ccccc1 | 8.46 µM |
| Cc1ccc(C)c(S(=O)(=O)Nc2ccc(O)c3ccccc23)c1 | 0.598 µM |
| CS/C(=C\[N+](=O)[O-])Nc1ccc(OC(F)(F)F)cc1 | > 38 µM (inactive) |
| CC(C)[C@H](NC(=O)OC(C)(C)C)c1nnc(S(=O)(=O)Cc2c(F)cccc2Cl)o1 | > 38 µM (inactive) |
| NC(=O)C1CCN(C2=C(Cl)C(=O)c3ccccc3C2=O)CC1 | 1.97 µM |
| Cc1nn(-c2ccccc2)c2c1C1(C(=O)N3c4c(cccc41)C(C)CC3(C)C)C(C#N)=C(N)O2 (configuration not stated) | 23.9 µM |
| O=C(/C=C/c1cccs1)Nc1scc(-c2ccccc2)c1C(=O)O | 23.7 µM |
| O=c1c(Cl)c(Cl)cnn1Cc1ccc(F)cc1 | 35.3 µM |
| Cc1cccc(NC2=C(Cl)C(=O)OC2OC(=O)c2ccco2)c1 (configuration not stated) | > 38 µM (inactive) |
| N#Cc1c(-c2ccccc2)nc(SCC(=O)N2c3ccccc3Sc3ccccc32)[nH]c1=O | 8.24 µM |

| SMILES | AC50 |
| --- | --- |
| Cc1ccc(C2=NN(C(=O)CCl)C(c3cccs3)C2)o1 (configuration not stated) | > 38 µM (inactive) |
| CCC(C)[C@H](NC(=O)NC1CCN(Cc2ccccc2)CC1)C(=O)OC (some centres not stated) | 5.82 µM |
| CCn1c(-c2ccccc2)c(C(=O)CCl)c2ccccc21 | 6.01 µM |
| COc1ccc(OCc2cc(C(=O)NC3CCOC(C)(C)C3)no2)c2ccccc12 (configuration not stated) | 26 µM |
| CCOc1ccc(Cl)cc1C(c1c(C)[nH][nH]c1=O)c1c(C)[nH][nH]c1=O | 12 µM |
| COc1cc(NC2CCCCC2O)c2nc(-c3ccc(Cl)cc3)ccc2c1 (configuration not stated) | 9.05 µM |
| Cc1ccc2[nH]c3c(c2c1)CN(C(=O)CN1CCSCC1)CC3 | > 38 µM (inactive) |
| O=C1C(=O)c2ccccc2C([O-])=C1[n+]1ccccc1 | 28.5 µM |
| O=C(CSc1nnc(Cc2ccccc2)o1)Nc1cccc(F)c1 | > 38 µM (inactive) |
| CCCCn1[nH]c(-c2ccccc2)cc1=O | 8.57 µM |
| CCC(CC)C(=O)NCc1ccc2c(c1)cc(C)n2C | > 38 µM (inactive) |
| CC(Oc1ccc(F)cc1)C(=O)Oc1ccc(N(C)S(=O)(=O)c2ccccc2)cc1 (configuration not stated) | > 38 µM (inactive) |
| CCCc1[nH]nc2c1C(c1ccc(OC)cc1OC)C(C#N)=C(N)O2 (configuration not stated) | 32.3 µM |
| CCOC(=O)c1cc(C)sc1NC(=O)CSC1=NCCS1 | 19.6 µM |
| COc1ccccc1N1C(=O)Cc2ccccc2C1=O | > 38 µM (inactive) |
| CCN(CC)c1ccc(/C=N/Nc2nc(C)cc(=O)[nH]2)c(O)c1 | > 38 µM (inactive) |
| Cc1cc(-c2[nH]nc3c2C(c2ccsc2)C(C#N)=C(N)O3)c(C)s1 (configuration not stated) | 13.6 µM |
| CC1(C)N=C(SCC(=O)Nc2ccc(Cl)cc2)C(c2ccc(Cl)cc2)=N1 | 29.8 µM |
| O=C1CCN(N=Nc2cccc(Cl)c2)N1 | > 38 µM (inactive) |
| Cc1sc(NC(=O)/C=C/C(=O)O)c(C(N)=O)c1-c1ccc(C(C)(C)C)cc1 | 11.9 µM |
| CC(C)CNC(=O)c1c(N)n(Cc2ccc3c(c2)OCO3)c2nc3ccccc3nc12 | 5.59 µM |
| CC(CCc1ccccc1)NC(=O)COC(=O)c1cc(NS(=O)(=O)c2ccc(Cl)c([N+](=O)[O-])c2)ccc1O (configuration not stated) | 18.8 µM |
| Nc1cc(N)c(OCC(F)(F)F)cc1OCC(F)(F)F | 9.65 µM |
| COc1cc(C(c2c(C)[nH][nH]c2=O)c2c(C)[nH][nH]c2=O)ccc1OCc1ccc([N+](=O)[O-])cc1 | 6.41 µM |
| Cc1cc(=O)n(-c2ccc(C(=O)O)cc2)[nH]1 | 1.92 µM |
